The target in this assay is Cathepsin D (Homo sapiens, UniProt P07339). The assay can be described thus: Assay 3: cathepsin D inhibition activity (non-cellular assay, chromogenic substrate). The assay is classed as biochemical. Also on record: Frozen human placental tissue was thawed and homogenized in 10mM Tris-HCl, pH 7.4; from tissue; host or cells: human placenta. To be noted: cathepsin D from human placental tissue, pH 3.7, 37°C. How it is done: A third non-cellular assay for determining in vitro aspartyl protease inhibitory activity is generally described in Jupp, R.A. et al., (1990) Biochem. J., 265:871-878 and Rao et al., J. Med. Chem. (1993), in press. The assay is carried out by incubating a test compound with a suitable aspartyl protease, such as cathepsin D, in the presence of a chromogenic substrate. The inhibition constant, Ki, value may then be determined by quantifying the competitive inhibition of the hydrolysis of the chromogenic substrate. A variety of chromogenic substrates that are useful for assaying aspartyl protease activity are discussed in Dunn, et al., (1986) Biochem. J., 237:899-906. A preferred chromogenic substrate for a cathepsin D assay is disclosed in Scarborough, P.E. et al., Protein Science, (1993), 2:264-276.
Sequence of Cathepsin D (P07339 65-412): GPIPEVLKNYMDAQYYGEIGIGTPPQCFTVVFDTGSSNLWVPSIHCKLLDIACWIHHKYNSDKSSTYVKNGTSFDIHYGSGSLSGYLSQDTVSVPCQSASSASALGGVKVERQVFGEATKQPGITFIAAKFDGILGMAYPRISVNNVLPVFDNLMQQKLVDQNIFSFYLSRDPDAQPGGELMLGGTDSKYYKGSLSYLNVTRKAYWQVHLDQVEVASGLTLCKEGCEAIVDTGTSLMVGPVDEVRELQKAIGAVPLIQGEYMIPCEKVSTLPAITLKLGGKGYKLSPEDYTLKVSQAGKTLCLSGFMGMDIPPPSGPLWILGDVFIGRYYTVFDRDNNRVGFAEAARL
Concentrations of substrate solutions and cleavage products may be verified using amino acid analysis. The enzyme preparations may be titrated with a tightly binding inhibitor to quantitate the active concentration of the enzyme. Enzyme concentrations are typically in the range of from 1-6 nM. […]
A decrease in absorbance in the range of 284-324 nm may be monitored using a spectrophotometer. Absorbance readings are typically taken at various timepoints. […] Estimates of Ki may then be determined using the Dixon construction. […]

Data on one molecule can be found in patent EP0652009A1, “Identification and use of protease inhibitors” (ELI LILLY AND COMPANY, priority 1993, dated 1995).

Structures are written as SMILES. Non-standard residues stand in square brackets, D forms with d. Residues, ends and D or L forms follow the SMILES beside them. 2Nal = N[C@@H](Cc1ccc2ccccc2c1)C(=O)O; Sta = CC(C)C[C@H](N)[C@@H](O)CC(=O)O

Broadly, the Ki is a dissociation constant, usually derived from enzyme kinetics or from competition with a known ligand. Low values mean tighter binding, high ones weaker binding. `CC(=O)N[C@@H](Cc1ccc2ccccc2c1)C(=O)N[C@H](C(=O)N[C@@H](CC(C)C)[C@@H](O)CC(=O)N[C@@H](CC(C)C)C(=O)N[C@@H](Cc1ccc2ccccc2c1)C(N)=O)C(C)C` [Example 36, Acetyl-β-naphthylalanine-valine-statine-leucine-β-naphthylalanine-amide] (Ac-[2Nal]V[Sta]L[2Nal]-NH2): the affinity, expressed as Ki, was 0.39 ± 0.04 nM.
